Measurements: the NIST ThermoML archive (doi:10.1016/j.fluid.2017.07.024)

Legend:
[1] = wn = mass fraction of the nth substance listed; conditions: 101 kPa, Liquid, Capillary tube (Ostwald / Ubbelohde) method, w1 = 0.9
[2] = Liquid, Closed cell (Static) method
[3] = molar heat capacity at constant pressure; conditions: 101 kPa, Power-Compensation Calorimetry

CCCCn1cc[n+](C)c1.[Br-] [1-butyl-3-methylimidazolium bromide] + O
[1]
Conditions	kinematic viscosity [m2/s]
313.15 K	2.21e-05
323.15 K	1.56e-05
333.15 K	1.14e-05
343.15 K	8.58e-06
353.15 K	6.65e-06
363.15 K	5.34e-06
373.15 K	4.34e-06

O [water]
[2]
Conditions	vapor or sublimation pressure [kPa]
274.15 K	0.671
276.15 K	0.778
279.15 K	0.956
282.15 K	1.171
285.15 K	1.428
288.15 K	1.739
291.15 K	2.103
294.15 K	2.525
297.15 K	3.035
300.15 K	3.62
303.15 K	4.299
304.45 K	4.659
306.15 K	5.104
308.55 K	5.85
313.45 K	7.631
318.15 K	9.698
323.45 K	12.68
328.65 K	16.35
333.15 K	20.22
337.45 K	24.61
345.65 K	35.27
353.85 K	49.37
364.35 K	74.26
372.15 K	99.51

CCCCn1cc[n+](C)c1.[Br-] [1-butyl-3-methylimidazolium bromide]
molar heat capacity at constant pressure [J/K/mol], [3]
Conditions	283.15 K	293.15 K	303.15 K	313.15 K	323.15 K	333.15 K	343.15 K	353.15 K	363.15 K	373.15 K
Crystal	265.14	269.52	276.09	289.24	308.96	361.55	705.57	–	–	–
Liquid	–	–	–	–	–	–	–	352.79	359.36	363.74
